These results are taken from patent publication US5776673A, “Treatment and detection of tuberculosis, leprosy, and related diseases” (priority 1995, dated 1998).

Molecules are shown by their SMILES. A value given as a limit tells only on which side of the number the result lay.

Experiment [1] deals with T1, T7 DNA polymerase (Escherichia phage T7, UniProt P00581, DEL118-145). Type of experiment: biochemical, Bacteriophage T7. Conditions: for percentage of counts in the first three dideoxy-terminated fragments to the total number of counts in the primers capable of being extended: 100 μM 4dNTPs and 100 μM of one ddNTP; for M, calculated exponential decay function: 1:1 dNTP:ddNTP, fit Y=e^M*X; for Incorporation Rate Ratios dN/ddN: absolute ratios from 1:1 dNTP:ddNTP test; for D, discrimination factor, ratio of use of dNTP to comparable ddNTP: equal concentrations, D=Y/(1-Y) at X=1. As to the method: (§1) Reaction conditions are used that are optimum for the DNA polymerase being tested with regard to buffer, pH, salts, and temperature of the reaction. A concentration of DNA polymerase is chosen whereby most of the primers are extended in a 10 min reaction and are terminated by the incorporation of a dideoxynucleotide. The reaction mixture contains 100 μM 4dNTPs and 100 μM of one of the four ddNTPs.
(§2) We used this test to compare the ability of six DNA polymerases to incorporate each of the four ddNMPs.
(§3) The reaction mixtures also contained 10 ng of yeast inorganic pyrophosphatase to inhibit pyrophosphorolysis that could otherwise increase the apparent discrimination by the DNA polymerase (Tabor and Richardson 265 J. Biol. Chem. 8322, 1990). The reactions were initiated by the addition of 2 μl of each DNA polymerase, diluted in 20 mM Tris.HCl, pH 7.5, 10 mM 2-mercaptoethanol and 0.05% bovine serum albumin to a concentration of approximately 0.025 units/μl. […] The reactions were terminated by the addition of 10 μl 90% formamide, 20 mM EDTA, 0.05% bromphenol blue. Each sample was heated at 90° C. for 2 min immediately prior to loading 6 μl of each sample onto a gel consisting of 8% polyacrylamide, 0.4% N,N'-methylenebisacrylamide, 7M urea in 100 mM Tris borate, pH 8.3, 1 mM EDTA. Electrophoresis was at 2000 Volts for 90 min (until the bromphenol blue had just run off the bottom of the gel). After electrophoresis, the gel was dried under vacuum, and autoradiographed. After autoradiography, the distribution of radioactively labeled fragments was determined by Phosphorimager analysis (Molecular Dynamics). Alternatively, the relative intensities of dideoxy-terminated bands can be determined by scanning the autoradiograph using an instrument such as the SciScan 5000 imaging densitometer (United States Biochemical Corp).
(§4) The distribution of radioactivity in the fragments was quantitated by Phosphoimager analysis (Molecular Dynamics). The total amount of labeled primers in each lane was determined by running three control reactions in which no DNA polymerase was present, and the radioactivity in each of the corresponding radioactive bands on the gel at the position of the unextended primer was determined. […] This value is defined as the total number of counts in primers that are capable of being extended by a DNA polymerase.
(§5) The values are presented in the Table below as the percentage of counts in the first three dideoxy-terminated fragments to the total number of counts in the primers capable of being extended by a DNA polymerase.
(§6) As a further test of the efficiency of each DNA polymerase to incorporate dideoxynucleotides, the number of counts in each fragment with a significant signal was determined for each reaction, and the data were plotted as a function of the fragment number using the Macintosh program Kaleidograph Version 3.0 (Synergy Software). The resulting plots were fit to an exponential decay curve using the Kaleidograph library routine for this function. The decay curve is given by the equation: […]

Experiment [2] addresses T2, E. coli DNA polymerase I (Escherichia coli, UniProt P00582). Conditions: 10 μM 4 dNTPs, ddNTP 100 to 2,000 μM; factor versus F762Y multiplied by its absolute ratio.
Experiment [3] concerns the target T3, T7 DNA polymerase Y526F (Escherichia phage T7, UniProt P00581, DEL118-145/Y526F). Conditions: 10 μM 4 dNTPs, ddNTP 100 to 2,000 μM; factor versus T7 DNA polymerase multiplied by its absolute ratio.
Experiment [4] addresses T4, Taq DNA polymerase F667Y (Thermus aquaticus, UniProt P19821, F667Y). The class given is biochemical. Conditions: for M, calculated exponential decay function: 1:1 dNTP:ddNTP, fit Y=e^M*X; for Incorporation Rate Ratios dN/ddN: absolute ratios from 1:1 dNTP:ddNTP test; for D, discrimination factor, ratio of use of dNTP to comparable ddNTP: equal concentrations, D=Y/(1-Y) at X=1. As to the method:
as §1, §2, §3, §4, §5, §6

Experiment [5] has as its target T5, Taq DNA polymerase (Thermus aquaticus, UniProt P19821). Conditions: 10 μM 4 dNTPs, ddNTP 100 to 2,000 μM; factor versus F667Y multiplied by its absolute ratio.
Experiment [6] addresses T3, T7 DNA polymerase Y526F. Kind of experiment: Competition of dATP and ddATP at a single site in synthetic Primer-Template A (Example 4). Type of experiment: biochemical, Bacteriophage T7. Conditions: 10 μM dATP; read-out: [ddATP] for 50% inhibition. As for the experimental part:
(§7) Example 4. Determination of the efficiency of incorporation of dideoxynucleotides by measuring the incorporation of [α-^32 P]dAMP into synthetic primer-template complexes
(§8) In this example the competition between a dNTP and a ddNTP is assayed for use at a single site in a synthetic primer-template. This assay differs from the others in that it limits the comparison of the use of the two substrates to a single site, avoiding the complication of sequence-specific variability in discrimination. […]
(§9) Each reaction mixture contains 25 pmoles each of primer and template. […] The mixtures are incubated at 37° C. for 1 min (70° C. for thermophilic DNA polymerases), and the reactions are initiated by the addition of 5 μl aliquots (0.01 to 1 unit) of the DNA polymerase being analyzed diluted in 20 mM Tris.HCl, pH 7.5, 10 mM 2-mercaptoethanol and 0.05% bovine serum albumin. […] The disks are then dried under a heat lamp and counted in a scintillation counter in 5 ml of fluor (Opti-Fluor O, Packard). From the amount of radioactivity on each disk, the amount [^32 P]dGMP incorporated was determined. […]
(§10) All reactions are carried out with a constant amount of the DNA polymerase being analyzed; the amount of DNA polymerase should be sufficient to replicate 50% of the total […] residues in the single-stranded region of the template in the 10 min incubation in the presence of 10 μM DATP and the absence of ddATP. […]

The target of experiment [7] is T1, T7 DNA polymerase. Described as above. Type of experiment: biochemical, Bacteriophage T7. Conditions: 10 μM dATP; read-out: [ddATP] for 50% inhibition. As to the method:
as §7, §8, §9, §10

Experiment [8] addresses T4, Taq DNA polymerase F667Y. The experiment is described as above. Conditions: 10 μM dATP; read-out: [ddATP] for 50% inhibition. The class given is biochemical. As for the experimental part:
as §7, §8, §9, §10

Experiment [9] deals with T5, Taq DNA polymerase. The experiment is described as above. The class given is biochemical. Conditions: 10 μM dATP; read-out: [ddATP] for 50% inhibition. As to the method: as §7, §8, §9, §10
Experiment [10] deals with T2, E. coli DNA polymerase I. The experiment is described as above. Conditions: 10 μM dATP; read-out: [ddATP] for 50% inhibition. On the set-up: The large fragment of E. coli DNA polymerase I, commonly called the Klenow fragment. The class given is biochemical. As for the experimental part: as §7, §8, §9, §10

`Nc1ccn([C@H]2CC[C@@H](COP(=O)(O)OP(=O)(O)OP(=O)(O)O)O2)c(=O)n1` [ddCTP]: the “percentage of counts in the first three dideoxy-terminated fragments to the total number of counts in the primers capable of being extended” value (“percentage of counts” below) in experiment [1] was found to be 61%. Besides, the figures for the “M, calculated exponential decay function” value in experiment [1] and in experiment [4] were -0.317 and -1.44, respectively. Further, the “Incorporation Rate Ratios dN/ddN” value in [1] is listed as 3.7; in [2], 250; in [3], 11,000; in experiment [4], 0.32; in experiment [5] it was 2,600. Moreover, the “D, discrimination factor, ratio of use of dNTP to comparable ddNTP” value (from here on “D, discrimination factor, ratio”) in [1] is 2.7; in experiment [4], 0.32.
As for `Nc1ncnc2c1ncn2[C@H]1CC[C@@H](COP(=O)(O)OP(=O)(O)OP(=O)(O)O)O1` [ddATP], in [1], the “percentage of counts” value amounted to 66%. Moreover, the “M, calculated exponential decay function” value in [1] was -0.356; in experiment [4], -0.997. For the same compound, the “Incorporation Rate Ratios dN/ddN” value in experiment [1] is 3.3; in [2], 720; in [3], 7,300; in [4], 0.59; in experiment [5], 4,700. Further, the “D, discrimination factor, ratio” value is 2.3 in experiment [1] and 0.59 in [4]. Further, the IC50 in experiment [6] is greater than 500 µM; in experiment [7] it was roughly 30 µM; in experiment [8], roughly 5 µM; in experiment [9], greater than 500 µM; in experiment [10] it was greater than 500 µM.
With `Nc1nc2c(ncn2[C@H]2CC[C@@H](COP(=O)(O)OP(=O)(O)OP(=O)(O)O)O2)c(=O)[nH]1` [ddGTP], in experiment [1], the “percentage of counts” value amounted to 67%. In addition, the results for the “M, calculated exponential decay function” value in [1] and in experiment [4] were -0.375 and -1.18, respectively. The “Incorporation Rate Ratios dN/ddN” value in experiment [1] is reported as 3.2; in experiment [2] it was 140; in experiment [3] it was 6,400; in experiment [4], 0.45; in experiment [5] it was 1,400. Besides, the “D, discrimination factor, ratio” value in experiment [1] is 2.2; in experiment [4] it was 0.45.
Take `Cc1cn([C@H]2CC[C@@H](COP(=O)(O)OP(=O)(O)OP(=O)(O)O)O2)c(=O)[nH]c1=O` [ddTTP]: the “percentage of counts” value in experiment [1] was 76%. Further, the “M, calculated exponential decay function” value is reported as -0.450 in [1] and -1.01 in [4]. Also, the “Incorporation Rate Ratios dN/ddN” value in [1] was 2.8; in [2], 1,100; in [3], 8,400; in experiment [4], 0.56; in experiment [5], 4,500. In addition, the “D, discrimination factor, ratio” value in experiment [1] was determined as 1.8; in experiment [4] it was 0.56.
